Source: article PMC9959048, “Lipidation of Naturally Occurring α-Helical Antimicrobial Peptides as a Promising Strategy for Drug Design” (International Journal of Molecular Sciences, 2023)
Values after ≈ are worked out from the molar mass of the structure shown. Residues, ends and D or L forms follow the SMILES beside them. *: point of attachment. Palmitoyl = CCCCCCCCCCCCCCCC(=O)*; Myristoyl = CCCCCCCCCCCCCC(=O)*; Decanoyl = CCCCCCCCCC(=O)*; Octanoyl = CCCCCCCC(=O)*

Experiments:
S. aureus PCM2054 = assay type: cell-based, Staphylococcus aureus; settings: Mueller–Hinton broth, inoculum 5 × 10^5 CFU/mL, 24 h, 37 °C, absorbance 600 nm, triplicate
Procedure: (§1) The evaluation of the antimicrobial activity of the synthesized lipopeptides was performed against the following reference bacterial and fungal strains: Staphylococcus aureus PCM 1650, Staphylococcus aureus PCM 2054, Staphylococcus epidermidis PCM 521, Staphylococcus epidermidis PCM 2118, Escherichia coli PCM 2057, Candida albicans PCM 2566, Candida glabrata CCM 8270, Candida krusei CCM 8271, Candida parapsilosis CCM 8260.
(§2) For the initial cultivation of the bacteria and fungi, Luria-Bertani broth (LB, Biomaxima, Lublin, Poland) and Sabouraud Dextrose broth (SB, Biomaxima, Lublin, Poland) were used, respectively. Antimicrobial properties of the compounds were analyzed through the determination of MIC (minimal inhibitory concentrations) by my means of the serial micro-dilution technique according to the guidelines of Clinical & Laboratory Standard Institute (CLSI) established for aerobic bacteria and yeasts.
(§3) According to the procedures, Mueller–Hinton broth (MHB) was used as the working medium for the analysis of the bacterial susceptibility, while RPMI-1640 (with L-glutamine, without sodium bicarbonate) growth medium buffered with MOPS (morpholinepropanesulfonic acid) and supplemented with 2% glucose was used for the experiments with the fungi.
(§4) The experiments were carried out for 24 h at 37 and 35 °C for the bacteria and fungi, respectively. Then, the absorbance was measured at 600 nm for each well of the 96-well plate using a microplate reader (Sunrise TM, Tecan Trading AG, Männedorf, Switzerland). Based on the obtained results, the degree of inhibition of the growth of microorganisms (expressed in %) in the presence of the tested compounds range was determined with respect to the control probes. Inoculated wells without peptide were treated as a positive control (100% growth), and the wells containing working medium only were defined as a negative control (0% growth). All measurements were repeated in triplicate.

S. epidermidis PCM2118 = assay type: cell-based, Staphylococcus epidermidis; settings: Mueller–Hinton broth, inoculum 5 × 10^5 CFU/mL, 24 h, 37 °C, absorbance 600 nm, triplicate
Procedure: as §1, §2, §3, §4

S. epidermidis PCM521 = assay type: cell-based, Staphylococcus epidermidis; settings: Mueller–Hinton broth, inoculum 5 × 10^5 CFU/mL, 24 h, 37 °C, absorbance 600 nm, triplicate
Procedure: as §1, §2, §3, §4

E. coli PCM2057 = assay type: cell-based, Escherichia coli; settings: Mueller–Hinton broth, inoculum 5 × 10^5 CFU/mL, 24 h, 37 °C, absorbance 600 nm, triplicate
Procedure: as §1, §2, §3, §4

C. albicans PCM2566 = assay type: cell-based, Candida albicans; settings: RPMI-1640 with MOPS and 2% glucose, inoculum 5 × 10^3 CFU/mL, 24 h, 35 °C, absorbance 600 nm, triplicate
Procedure: as §1, §2, §3, §4

C. glabrata CCM8270 = assay type: cell-based, Candida glabrata; settings: RPMI-1640 with MOPS and 2% glucose, inoculum 5 × 10^3 CFU/mL, 24 h, 35 °C, absorbance 600 nm, triplicate
Procedure: as §1, §2, §3, §4

C. krusei CCM8271 = assay type: cell-based, Candida krusei; settings: RPMI-1640 with MOPS and 2% glucose, inoculum 5 × 10^3 CFU/mL, 24 h, 35 °C, absorbance 600 nm, triplicate
Procedure: as §1, §2, §3, §4

C. parapsilosis CCM 8260 = assay type: cell-based, Candida parapsilosis; settings: RPMI-1640 with MOPS and 2% glucose, inoculum 5 × 10^3 CFU/mL, 24 h, 35 °C, absorbance 600 nm, triplicate
Procedure: as §1, §2, §3, §4

[1] = system: human breast cancer cells (MCF-7 line, ATCC); assay: MTT cytotoxicity assay; assay type: cell-based; settings: IC50 against HaCaT divided by IC50 for MCF-7
Procedure: (§5) The prepared plates were further incubated for 48 h. […] The control cell viability was assumed to be 100%. Three independent experiments were carried out in three repetitions.

[2] = system: human prostate cancer cells (PC3 line, ATCC); assay: MTT cytotoxicity assay; assay type: cell-based; settings: IC50 against HaCaT divided by IC50 for PC3
Procedure: as §5

POPC liposomes = assay: CD, α-helix content in POPC liposomes; assay type: physicochemical; settings: 25 °C, peptide 0.15 mg/mL, 1.3 mM POPC; for α-Helix percentage, POPC: from ellipticity at 222 nm
Procedure: (§6) Large unilamellar vesicles (LUV) were obtained by extrusion of MLV liposomes through polycarbonate membrane filters with a pore diameter of 100 nm (Whatman International Ltd., Kent, UK) using a mini-extruder (Avanti Polar Lipids, Inc., Alabaster, AL, USA).
(§7) CD experiments were carried out at 25 °C using a Jasco J-815 spectropolarimeter in the wavelength range 185–260 nm. The concentration of the lipopeptides was 0.15 mg/mL. The CD spectra were recorded in water, PBS (pH 7.4), 1.3 mM POPC and 1.3 mM POPG. The results are plotted as the mean molar ellipticity per one amino acid residue (MRME, deg cm^2 dmol^−1) as a function of the wavelength (nm). Additionally, we performed a conformational analysis of the selected compounds in the presence of S. aureus cells. […] The mixtures were then incubated for 2 h before recording the CD spectra.
(§8) The percentage of the α-helical structure was calculated based on the mean molar ellipticity at 222 nm using the formula: fH=θ222−3000/−36000−3000·100% where θ222 corresponds to the value of the mean molar ellipticity at a wavelength of 222 nm.

POPG liposomes = assay: CD, α-helix content in POPG liposomes; assay type: physicochemical; settings: 25 °C, peptide 0.15 mg/mL, 1.3 mM POPG, from ellipticity at 222 nm
Procedure: as §6, §7, §8

POPG LUVs = assay: Isothermal titration calorimetry, binding to POPG LUVs; settings: ITC, 25 °C, 0.05 or 0.07 mM peptide titrated with 1.3 or 1.8 mM POPG LUVs; one set of sites model (C10-LL-I: two sets of sites, first line)
Procedure: as §6
The thermodynamic parameters of the interactions of the lipopeptides with POPG and POPC liposomes were determined by isothermal titration calorimetry (ITC). Measurements were performed at 25 °C using an AutoITC microcalorimeter (MicroCal Inc., Northampton, MA, USA) with a 1.4491 mL sample and reference cells. The experiment consisted in the titration of a buffered peptide solution with a concentration of 0.05 and/or 0.07 mM with a buffered solution containing POPG or POPC LUVs with a lipid concentration of 1.3 and 1.8 mM (10.02 µL; 29 injections, 2 µL for the first injection only), as it was described previously. The result of the titration was a thermogram showing a series of peaks corresponding to the titration steps. A titration curve was obtained after integration of the peak areas. The obtained isotherms were fitted to the “one set of sites” or “two sets of sites” models available in the ORIGIN 7.0 (MicroCal Inc., Northampton, MA, USA), which made it possible to determine the enthalpy (ΔH), the binding constant (KITC) and the stoichiometry (N) of the interactions between the lipopeptide and the lipids. The following formula was used to calculate the entropy change (ΔS) and the Gibbs free energy (ΔG): ΔG=−RTln(55.5KITC)=ΔH−TΔS where: factor 55.5 is the molar concentration of water, R is the gas constant (1.986 cal·mol^−1·K^−1), and T is the absolute temperature.

[3] = Dynamic light scattering of lipopeptide assemblies; assay type: physicochemical; settings: DLS, sonicated 10 min, incubated 1 h, 90° side scatter
Procedure: The hydrodynamic diameters of the lipopeptide nanoaggregates were examined by the Litesizer 500 (Anton-Paar GmbH, Graz, Austria) at 25 °C. The measurements were carried out at various lipopeptide concentrations ranging from 0.5 to 2 mM and from 0.25 to 2 mM, in water and PBS, respectively. Two-fold serial dilutions were used to obtain the sequential concentrations. Each sample was sonicated for 10 min followed by incubation for 1 h at 25 °C and transferred to the polystyrene cuvette. The detector was positioned at a side scatter position (90°). The analysis of the obtained results and report generation was performed with KalliopeTM software (Anton-Paar GmbH, Graz, Austria).

S. aureus PCM1650 = assay type: cell-based, Staphylococcus aureus; settings: Mueller–Hinton broth, inoculum 5 × 10^5 CFU/mL, 24 h, 37 °C, absorbance 600 nm, triplicate
Procedure: as §1, §2, §3, §4

fungi Candida spps = assay: MIC, antifungal activity; assay type: cell-based; settings: text summary of Table 1, Candida strains
Procedure: as §1
as §2, with “yeasts. […]” for “yeasts.”
as §4, with “Inoculated wells without peptide were treated as a positive control (100% growth), and the wells containing working medium only were defined as a negative control (0% growth). All measurements were repeated in triplicate.” left out

Compound	MIC, S. aureus PCM2054 (S. aureus PCM2054) [µg/mL]	MIC, S. epidermidis PCM2118 (S. epidermidis PCM2118) [µg/mL]	MIC, S. epidermidis PCM521 (S. epidermidis PCM521) [µg/mL]	MIC, E. coli PCM2057 (E. coli PCM2057) [µg/mL]	MIC, C. albicans PCM2566 (C. albicans PCM2566) [µg/mL]	MIC, C. glabrata CCM8270 (C. glabrata CCM8270) [µg/mL]	MIC, C. krusei CCM8271 (C. krusei CCM8271) [µg/mL]	MIC, C. parapsilosis CCM 8260 (C. parapsilosis CCM 8260) [µg/mL]	SI MCF-7 [1]	SI PC3 [2]	θ222/θ208, POPC (POPC liposomes)	α-Helix percentage, POPC (POPC liposomes) [%]	α-Helix percentage, POPG (POPG liposomes) [%]	pKITC, POPG (POPG LUVs)	hydrodynamic diameter, peak of highest scattering intensity ([3]; 0.25 mM in PBS pH 7.4, 25 °C) [nm]	hydrodynamic diameter, peak of highest scattering intensity ([3]; 0.5 mM salt-free aqueous solution, 25 °C) [nm]	hydrodynamic diameter ([3]; 2 mM in PBS pH 7.4, 25 °C) [nm]	MIC, S. aureus PCM1650 (S. aureus PCM1650) [µg/mL]	MIC, antifungal activity (fungi Candida spps) [µg/mL]
CCCCCCCC(=O)N[C@@H](CCCCN)C(=O)N[C@@H](CCCNC(=N)N)C(=O)N[C@@H](Cc1ccccc1)C(=O)N[C@@H](CCCCN)C(=O)N[C@@H](CCCCN)C(=O)N[C@@H](Cc1ccccc1)C(=O)N[C@@H](Cc1ccccc1)C(=O)N[C@@H](CCCCN)C(=O)N[C@@H](CCCCN)C(=O)N[C@@H](CC(C)C)C(=O)N[C@@H](CCCCN)C(N)=O [C8-ATRA-1] (Octanoyl-KRFKKFFKKLK-NH2)	7.8 (≈ 4.81 µM)	3.13 (≈ 1.93 µM)	3.13 (≈ 1.93 µM)	>50	>50	>50	12.5 (≈ 7.7 µM)	50 (≈ 30.8 µM)	8.55	2.29	0.38	11	20	5.78 ± 0.27	–	–	–	–	–
CCCCCCCCCC(=O)N[C@@H](CCCCN)C(=O)N[C@@H](CCCNC(=N)N)C(=O)N[C@@H](Cc1ccccc1)C(=O)N[C@@H](CCCCN)C(=O)N[C@@H](CCCCN)C(=O)N[C@@H](Cc1ccccc1)C(=O)N[C@@H](Cc1ccccc1)C(=O)N[C@@H](CCCCN)C(=O)N[C@@H](CCCCN)C(=O)N[C@@H](CC(C)C)C(=O)N[C@@H](CCCCN)C(N)=O [C10-ATRA-1] (Decanoyl-KRFKKFFKKLK-NH2)	3.9 (≈ 2.36 µM)	3.13 (≈ 1.9 µM)	3.13 (≈ 1.9 µM)	31.25 (≈ 18.9 µM)	50 (≈ 30.3 µM)	>50	12.5 (≈ 7.57 µM)	25 (≈ 15.1 µM)	9.47	3.92	0.65	14	17	7.06 ± 0.61	2808 ± 1193	284 ± 105	1040 ± 343	–	–
CCCCCCCCCCCCCC(=O)N[C@@H](CCCCN)C(=O)N[C@@H](CCCNC(=N)N)C(=O)N[C@@H](Cc1ccccc1)C(=O)N[C@@H](CCCCN)C(=O)N[C@@H](CCCCN)C(=O)N[C@@H](Cc1ccccc1)C(=O)N[C@@H](Cc1ccccc1)C(=O)N[C@@H](CCCCN)C(=O)N[C@@H](CCCCN)C(=O)N[C@@H](CC(C)C)C(=O)N[C@@H](CCCCN)C(N)=O [C14-ATRA-1] (Myristoyl-KRFKKFFKKLK-NH2)	3.9 (≈ 2.28 µM)	6.25 (≈ 3.66 µM)	25 (≈ 14.6 µM)	>50	2.5 (≈ 1.46 µM)	3.13 (≈ 1.83 µM)	2.5 (≈ 1.46 µM)	3.13 (≈ 1.83 µM)	–	–	–	–	–	–	–	–	–	12.5 (≈ 7.32 µM)	–
CCCCCCCCCCCCCCCC(=O)N[C@@H](CCCCN)C(=O)N[C@@H](CCCNC(=N)N)C(=O)N[C@@H](Cc1ccccc1)C(=O)N[C@@H](CCCCN)C(=O)N[C@@H](CCCCN)C(=O)N[C@@H](Cc1ccccc1)C(=O)N[C@@H](Cc1ccccc1)C(=O)N[C@@H](CCCCN)C(=O)N[C@@H](CCCCN)C(=O)N[C@@H](CC(C)C)C(=O)N[C@@H](CCCCN)C(N)=O [C16-ATRA-1] (Palmitoyl-KRFKKFFKKLK-NH2)	>50	12.5 (≈ 7.2 µM)	25 (≈ 14.4 µM)	>50	2.5 (≈ 1.44 µM)	3.13 (≈ 1.8 µM)	2.5 (≈ 1.44 µM)	3.13 (≈ 1.8 µM)	–	–	–	–	–	–	–	–	–	–	≤ 3.13
CC[C@H](C)[C@H](NC(=O)[C@H](CCCCN)NC(=O)CNC(=O)[C@H](CC(C)C)NC(=O)[C@@H](NC(=O)[C@H](CCCCN)NC(=O)[C@H](CCCCN)NC(=O)[C@H](Cc1c[nH]c2ccccc12)NC(=O)[C@H](CC(N)=O)NC(=O)[C@@H](N)C(C)C)C(C)C)C(=O)N[C@H](C(=O)N[C@@H](CCCCN)C(=O)N[C@H](C(=O)N[C@@H](C)C(=O)N[C@@H](CCCCN)C(N)=O)C(C)C)[C@@H](C)CC [LL-I, reference compound] (H-VNWKKVLGKIIKVAK-NH2)	>50	6.25 (≈ 3.63 µM)	12.5 (≈ 7.25 µM)	12.5 (≈ 7.25 µM)	>50	>50	50 (≈ 29 µM)	50 (≈ 29 µM)	–	–	–	–	–	–	–	–	–	25 (≈ 14.5 µM)	–
